From article PMC12114846, “Interleukin-15Rα-Sushi-Fc Fusion Protein Co-Hitchhikes Interleukin-15 and Pheophorbide A for Cancer Photoimmunotherapy” (Pharmaceutics, 2025)

Assays:
[1] = Serum pharmacokinetics of rIL-15 after i.v. injection (ELISA); assay type: in vivo, C57BL/6 mice; conditions: 0.3 mg/kg of rIL-15, mice
Method: For the rIL-15 group, blood was collected from the tail veins at time points of 5, 10, 15, 20, 30, 45, 60, 75, and 90 min post-injection, respectively. For the other groups, blood was collected at time points of 5, 10, 20, 30, 60, 90, 120, 180, 240, 300, and 360 min post-injection, respectively. The concentrations of rIL-15 in mouse sera were quantified by ELISA, as described above regarding the characterization of the nanoparticles.
(§1) Pharmacokinetic parameters including the elimination half-life (t1/2), the area under the concentration–time curve to the least measurable concentration (AUC0→n), the area under the moment curve (AUMC), the mean residence time (MRT), clearance (Cl), and the steady-state volume of distribution (Vss) were calculated using non-compartmental analysis.

M-07e cells = assay: Proliferation of M-07e cells (WST-1); assay type: cell-based; conditions: for EC50: 72 h incubation, WST-1
Method: The protein of rIL-15 and rILR-Fc were analyzed by sodium dodecyl sulfate–polyacrylamide gel electrophoresis (SDS-PAGE) and a Western blot. The Western blot was performed according to our previously reported method. The primary antibody used in the Western blot was the his-tag mouse monoclonal antibody (1:5000, 66005-1-Ig, Proteintech, Wuhan, China), and the secondary antibody was horseradish peroxidase (HRP)-conjugated goat anti-mouse IgG (1:5000, 33201ES60, Yeasen, Shanghai, China). The biological activity of rIL-15 and rILR-Fc/rIL-15 was determined by their ability to stimulate the proliferation of M-07e cells.
The biological activity of the nanoparticles was determined by their ability to stimulate the proliferation of M-07e cells, as described in the Supplementary Materials. […]
gene fragment (ILR-Fc), which was then ligated into the liner pPIC9k vector. […]
Matrix-assisted laser desorption/ionization time-of-flight mass spectrometry (MALDI-TOF-MS) analysis was performed to calculate the molecular mass of rILR-Fc, with sinapic acid selected as the matrix. The released oligosaccharides were analyzed by sodium dodecyl sulfate-polyacrylamide gel electrophoresis (SDS-PAGE). […]
The biological activity of recombinant proteins or nanoparticles were determined by their ability to stimulate the proliferation of M-07e cells. […]
cells (10,000 cells/well) were plated in RPMI-1640 supplemented with 10% fetal bovine serum (FBS) in a 96-well plate and incubated with proteins (rIL-15, rILR-Fc/rIL-15, rIL-15Rα-Fc/rIL-15, rIL-15-wt, rILR-Fc/rIL-15-wt and rIL-15Rα-Fc/rIL-15-wt) at the specified concentration for 72 h at 37 °C. Cell proliferation was determined using the water-soluble tetrazolium 1 (WST-1) cell counting kit (Beyotime, Shanghai, China) following the manufacturer’s instructions. Similarity, the biological activity of nanoparticles was determined by incubated with nanoparticles at the specified concentration to stimulate the proliferation of M-07e cells. […]
Aﬃnity was measured by enzyme-linked immunosorbent assay (ELISA). […]

s.c. CT26-Luc tumors = assay: Live fluorescence imaging of PhA in s.c. tumor; assay type: in vivo, BALB/c mice; conditions: post-injection, i.v., 2.5 mg/kg of PhA
Method: The tumor models were established according to our previous method. For the subcutaneous (s.c.) tumor model, 2 × 10^6 CT26-Luc cells in 50 μL PBS were implanted into the right axillary fossae of anesthetized male BALB/c mice. Orthotopic models were established through the injection of 2 × 10^6 CT26-Luc cells (20 μL PBS) into the subserosal layer of the cecum.
Live fluorescence imaging was conducted using the IVIS system (Caliper Life Sciences, USA) (λex = 675 nm, λem = 720 nm) at serial time points (18 min, 30 min, 45 min, 1 h, 1.5 h, 2 h, 3 h, 4 h, 6 h, 17 h, and 27 h) post-injection. The fluorescence intensity in the tumor region was quantified by deducting the fluorescence intensity of the mouse tumor before the administration of nanoparticles from that at each time point post-administration. […] The plasma, heart, liver, spleen, lung, kidney, lymph node, skin, and tumor were harvested for IVIS imaging (λex = 675 nm, λem = 720 nm). The tissue uptake of PhA was presented through the semi-quantitative analysis of the fluorescence intensity.

[2] = Plasma pharmacokinetics of PhA after i.v. injection; assay type: in vivo, BALB/c mice; conditions: 2.5 mg/kg of PhA, mice
Method: The free PhA formulation was prepared by dissolving PhA in 0.1% NaOH (w/v) via sonication to obtain a 4 mg/mL stock solution, followed by dilution with PBS to obtain the injection dose. An alkali solution can increase the solubility of pheophorbide A applied to photodynamic therapy. Blood samples were collected from the tail veins into heparin tubes at time points of 0.1, 0.5, 0.75, 1, 1.5, 2, 3, 4, and 5 h post-injection, respectively. PhA was extracted from plasma using a mixture of acetonitrile and methanol (1:1 v/v). The mixture was vortexed for 10 s, followed by centrifugation at 12,000 rpm for 10 min at 4 °C. The supernatant was transferred to a black 96-well plate, and the concentration of PhA was determined by the Hybrid Multi-Mode Microplate Reader (λex = 400 nm, λem = 656 nm).
as §1

[3] = Skin photosensitivity after xenon light; assay type: in vivo, BALB/c mice; conditions: 2.5 mg/kg of PhA i.v., xenon light 5 mW/cm^2 for 25 min at 24 h post-injection
Method: To evaluate the skin photosensitivity, healthy BALB/c mice were depilated and randomly divided into three groups. […] Mice injected with PBS were used as controls. At 24 h post-injection, all mice were exposed to a long-arc xenon lamp (5 mW/cm^2, 25 min), which is generally used in solar simulation systems, emitting a high-intensity radiant flux with a visible spectrum closely approximating that of unfiltered daylight. A 1.5 cm × 1.5 cm section of skin was collected from the dorsal areas of the mice for H&E staining.

[4] = tested on: orthotopic CT26-Luc tumors; assay: Antitumor effect, survival and rechallenge; conditions: PhA-containing groups + PDT; rILR-Fc/rIL-15 without laser; 2.5 mg/kg of PhA, 0.3 mg/kg of rIL-15; n = 8; PBS group 32 days
Method: For the laser treatment, the abdominal cavity of the mouse was opened under anesthesia; then, the tumor foci on the cecum were exposed and irradiated with a 660 nm diode laser (80 mW/cm^2) through a quartz optic fiber (0.9 mm diameter) for 10 min at 35 min post-injection. The abdominal cavity was sutured after the laser treatment. […] The tumor burden was monitored via the bioluminescence signal using an IVIS system after the i.p. injection of D-luciferin (15 mg/mL, 200 μL).
Age-matched naive male BALB/c mice were used as the controls. The tumor volume and the bioluminescence signals were recorded to assess the antitumor effects following different treatments. The death point was defined as when the tumor volume reached 2000 mm^3, calculated by the following equation:(3) Vt=L × W^2/2 where Vt is the tumor volume, L is the tumor length, and W is the tumor width.

rILR-Fc = molecular target: T1, rILR-Fc (Homo sapiens, UniProt Q13261); assay: Microscale thermophoresis of PhA with Cy5-labeled rILR-Fc; assay type: binding; conditions: MST, Cy5-labeled rILR-Fc 15 nM, PBS buffer
T1 construct: the human sushi domain (amino acids 1-77) of IL-15-Rα; His tag; made in house; host or cells: Pichia pastoris GS115
T1 sequence (Q13261 with tags, fused parts or gaps limits assumed): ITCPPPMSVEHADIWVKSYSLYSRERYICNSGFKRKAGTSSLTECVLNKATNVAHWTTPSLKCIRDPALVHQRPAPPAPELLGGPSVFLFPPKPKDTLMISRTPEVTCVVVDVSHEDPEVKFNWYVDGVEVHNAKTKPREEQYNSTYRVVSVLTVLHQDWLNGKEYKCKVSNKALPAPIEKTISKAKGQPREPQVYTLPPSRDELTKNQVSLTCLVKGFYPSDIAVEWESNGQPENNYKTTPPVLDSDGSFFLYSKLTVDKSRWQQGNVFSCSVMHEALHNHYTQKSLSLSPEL
Method: The dissociation constant (KD) between PhA and rILR-Fc was measured by the microscale thermophoresis (MST) technique, according to our previously reported method. Briefly, PhA was dissolved in dimethyl sulfoxide (DMSO) and subjected to a series of dilutions to prepare ligand solutions ranging from 0.4 μM to 0.098 nM. Cy5-labeled rILR-Fc was prepared at a concentration of 15 nM and incubated with the ligand solutions for 10 min. The resulting samples were then loaded into capillaries (NanoTemper Technologies, Munich, Germany) for MST analysis.

| Compound | AUC0→n of rIL-15 [1] | AUMC of rIL-15 [1] | Cl of rIL-15 [1] | MRT of rIL-15 [1] [min] | Vss of rIL-15 [1] | t1/2 of rIL-15 [1] [h] | EC50 (M-07e cells) [nM] | EC50 fold smaller than that of rIL-15-wt (M-07e cells; M-07e proliferation) | time of peak accumulation of PhA in the tumor (s.c. CT26-Luc tumors) [h] | AUMC of PhA [2] [μg/mL·h^2] | Cl of PhA [2] | Vss of PhA [2] | MRT ([2]; male, BALB/c, mouse, iv) [h] | AUC ([2]; male, BALB/c, mouse, iv, read-out: AUC0→n of PhA) [µg·h/mL] | half-life ([2]; male, BALB/c, mouse, iv, read-out: t1/2 of PhA (converted)) [h] | skin after light exposure (H&E staining) [3] | median survival time [4] [days] | Kd (rILR-Fc) [nM] |
| --- | --- | --- | --- | --- | --- | --- | --- | --- | --- | --- | --- | --- | --- | --- | --- | --- | --- | --- |
| rIL-15: N72D-mutated human IL-15 produced in E. coli BL21 (DE3) cells | 664.4 ± 196.1 ng/mL·min (×10) | 544.5 ± 73.17 ng/mL·min^2 (×10^2) | 5.766 ± 2.519 (μg)/(ng/mL)/min (×10^−4) | 9.913 ± 2.956 | 6.351 ± 3.348 (μg)/(ng/mL) (×10^−3) | 0.3373 ± 0.0195 | 0.92 | ~ 3.5 fold | – | – | – | – | – | – | – | – | – | – |
| rIL-15-wt: recombinant wild type IL-15 obtained from Sino biological (10360-H07E) | – | – | – | – | – | – | 3.26 | – | – | – | – | – | – | – | – | – | – | – |
| C=Cc1c(C)c2cc3nc(c4c5[nH]c(cc6nc(cc1[nH]2)C(C)=C6CC)c(C)c5C(=O)[C@@H]4C(=O)OC)[C@@H](CCC(=O)O)[C@@H]3C [PhA, pheophorbide A] | – | – | – | – | – | – | – | – | 1.5 | 15.97 ± 4.162 | 8.129 ± 1.527 (μg)/(μg/mL)/h | 18.20 ± 1.111 (μg)/(μg/mL) | 2.35 ± 0.315 | 6.49 ± 1.01 | 1.76 ± 0.164 | remained unchanged after light exposure | 42 | 200 |
